Source: patent publication US12162850B2, “Formulations” (Betagenon AB, priority 2019, dated 2024)

Assay: Single dose oral pharmacokinetic studies in rabbits
Type: in vivo
Conditions: male, New Zealand White, rabbit, plasma; for AUC(0-t): 25 mg/kg, 25 mg/kg b.w. oral single dose

AUC(0-t) (enteric coated capsule with MgO, rabbit plasma (Example 9)): 1700 ± 248 µg·h/mL
AUC(0-t) (enteric coated capsule with mannitol, rabbit plasma (Example 10)): 1470 ± 78.7 µg·h/mL
Tmax (53 mg/kg, enteric coated capsule with MgO, 53 mg/kg b.w. (equivalent to 50 mg/kg Compound 1) oral single dose, rabbit plasma (Example 11)): 48 ± 24 h
SMILES: O=C(Nc1nc(=O)n(Cc2ccc(Cl)cc2)s1)c1ccc(Cl)cc1.[Na] [Compound 2, 4-chloro-N-[2-[(4-chlorophenyl)methyl]-3-oxo-1,2,4-thiadiazol-5-yl]benzamide sodium salt]
